Ends that are not written are not given here.
What was measured:
P. aeruginosa elastase = target: T1, P. aeruginosa elastase (Pseudomonas aeruginosa, UniProt P14756); format: in vitro ADME; settings: 37°C, in words; for stability against P. aeruginosa elastase: 1 µg peptide, 0.1 µg enzyme, 30 µl, 3 hours (legend: 4 h), SDS-PAGE Coomassie; for stability against P. aeruginosa elastase, extended digestion: different times up to 18 h, SDS-PAGE
T1 construct: purchased Calbiochem (La Jolla, USA)
Experimental: […] The materials were analyzed on 16.5% precast sodium dodecyl sulfate polyacrylamide (SDS-PAGE) Tris-Tricine gels (BioRad, Hercules, USA) and analyzed after staining with Coomassie Blue R-250 (Merck, Darmstadt, Germany).

[1] = system: Staphylococcus haemolyticus – antibiotic susceptible clinical isolate; format: cell-based
Experimental: (§1) In order to determine the minimal inhibitory concentration (MIC) for a given peptide and bacteria, we used a standardized dilution method according to NCSLA guidelines. In brief, fresh overnight colonies were suspended to a turbidity of 0.5 units and further diluted in Mueller-Hinton broth (MH) (Becton Dickinson). For determination of MIC, peptides were dissolved in water at concentration 10 times higher than the required range by serial dilutions from a stock solution. Ten µl of each concentration was added to each corresponding well of a 96-well microtiter plate (polypropylene, Costar Corp.) and 90 µl of bacteria (1×10^5) in MH medium added. The plate was incubated at 37°C for 16–18 h. MIC was considered as the lowest concentration of peptide where no visual growth of bacteria was detected. Additional MIC determinations presented in Table 2 were performed using cation-adjusted MH broth at Quotient Bioresearch Ltd., Fordham, United Kingdom.

[2] = system: EMRSA15 Staphylococcus aureus (MRSA) – SSCmec type 4; format: cell-based; settings: EMRSA15 – SSCmec type 4
Experimental: as §1

[3] = system: Group G Streptococcus – antibiotic-susceptible clinical isolate; format: cell-based
Experimental: as §1

[4] = system: MU50 Staphylococcus aureus (MRSA) – VISA type strain; format: cell-based
Experimental: as §1

[5] = system: Pseudomonas aeruginosa – Liverpool genotype LES 431; format: cell-based
Experimental: as §1

[6] = system: Group G Streptococcus – macrolide-resistant clinical isolate; format: cell-based
Experimental: as §1

[7] = system: Staphylococcus aureus - teicoplanin-intermediate clinical isolate; format: cell-based
Experimental: as §1

[8] = system: Escherichia coli - ESBL - SHV; format: cell-based
Experimental: as §1

[9] = system: Staphylococcus epidermidis– methicillin-resistant clinical isolate; format: cell-based
Experimental: as §1

[10] = system: EMRSA3 Staphylococcus aureus (MRSA) – SSCmec type 1; format: cell-based; settings: EMRSA3 – SSCmec type 1
Experimental: as §1

[11] = system: Streptococcus pyogenes – antibiotic-susceptible clinical isolate; format: cell-based
Experimental: as §1

[12] = system: Streptococcus pyogenes – Macrolide (M-type) resistance clinical isolate; format: cell-based
Experimental: as §1

[13] = system: Escherichia coli - ESBL - CTXM; format: cell-based
Experimental: as §1

[14] = system: Streptococcus pyogenes – Macrolide (MLS) resistant clinical isolate; format: cell-based
Experimental: as §1

[15] = system: HT2001254 Staphylococcus aureus (MRSA) – PVL positive; format: cell-based
Experimental: as §1

[16] = system: Group C Streptococcus – antibiotic-susceptible clinical isolate; format: cell-based
Experimental: as §1

[17] = system: Staphylococcus aureus ATCC 29213 – antibiotic-susceptible type strain; format: cell-based
Experimental: as §1

[18] = system: Staphylococcus epidermidis – antibiotic susceptible clinical isolate; format: cell-based
Experimental: as §1

[19] = system: Pseudomonas aeruginosa ATCC 27853 - antibiotic-susceptible type strain; format: cell-based
Experimental: as §1

[20] = system: Escherichia coli - ESBL - TEM; format: cell-based
Experimental: as §1

[21] = system: Staphylococcus aureus - multi-drug-resistant clinical isolate; format: cell-based
Experimental: as §1

[22] = system: Staphylococcus aureus – methicillin-resistant clinical isolate; format: cell-based
Experimental: as §1

[23] = system: EMRSA16 Staphylococcus aureus (MRSA) – SSCmec type 2; format: cell-based; settings: EMRSA16 – SSCmec type 2
Experimental: as §1

[24] = system: Staphylococcus saprophyticus – antibiotic susceptible clinical isolate; format: cell-based
Experimental: as §1

[25] = system: Staphylococcus aureus ATCC 43300 – methicillin-resistant type strain; format: cell-based
Experimental: as §1

[26] = system: Escherichia coli - multi-drug resistant clinical isolate; format: cell-based
Experimental: as §1

[27] = system: Escherichia coli ATCC 35218 - β-lactamase positive type strain; format: cell-based
Experimental: as §1

[28] = system: EMRSA1 Staphylococcus aureus (MRSA) – SSCmec type 3; format: cell-based; settings: EMRSA1 – SSCmec type 3
Experimental: as §1

[29] = system: Escherichia coli ATCC 25922 - antibiotic-susceptible type strain; format: cell-based
Experimental: as §1

[30] = system: Streptococcus pyogenes – ATCC 19615; format: cell-based
Experimental: as §1

[31] = system: Pseudomonas aeruginosa - multi-drug resistant clinical isolate; format: cell-based
Experimental: as §1

[32] = system: Group C Streptococcus – macrolide-resistant clinical isolate; format: cell-based
Experimental: as §1

S. aureus aureolysin = target: T2, S. aureus aureolysin (Staphylococcus aureus, UniProt P81177); assay: Protease sensitivity assay (SDS-PAGE); format: in vitro ADME; settings: 1 µg peptide, 0.1 µg enzyme, 30 µl, 37°C, 3 hours (legend: 4 h), SDS-PAGE Coomassie; in words
T2 construct: purchased BioCol GmbH (Potsdam, Germany)
T2 sequence (P81177 209-509): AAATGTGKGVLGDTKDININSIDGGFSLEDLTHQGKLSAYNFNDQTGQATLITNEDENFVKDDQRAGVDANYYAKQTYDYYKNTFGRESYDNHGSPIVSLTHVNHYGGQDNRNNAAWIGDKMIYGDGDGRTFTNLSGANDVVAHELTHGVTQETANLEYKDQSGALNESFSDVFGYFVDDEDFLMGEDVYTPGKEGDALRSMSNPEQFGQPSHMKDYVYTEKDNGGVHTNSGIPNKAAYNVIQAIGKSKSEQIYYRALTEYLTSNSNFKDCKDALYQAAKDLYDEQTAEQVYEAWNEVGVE
Experimental: (§2) For evaluation of sensitivity to bacterial and endogenous proteases, peptides (1 µg) were incubated at 37°C with S. aureus aureolysin (0.1 µg, 25000 units/mg), S. aureus V8 proteinase (0.1 µg, 2000 mU), both from BioCol GmbH (Potsdam, Germany), human neutrophil elastase (0.4 µg, 29 units/mg; Calbiochem (La Jolla, USA)) or P. aeruginosa elastase (0.1 µg, 261 units/mg) (Calbiochem, La Jolla, USA) in a total volume of 30 µl for 3 hours. The materials were analyzed on 16.5% precast sodium dodecyl sulfate polyacrylamide (SDS-PAGE) Tris-Tricine gels (BioRad, Hercules, USA) and analyzed after staining with Coomassie Blue R-250 (Merck, Darmstadt, Germany).

S. aureus V8 proteinase = target: T3, S. aureus V8 proteinase (Staphylococcus aureus, UniProt P0C1U8); assay: Protease sensitivity assay (SDS-PAGE); format: in vitro ADME; settings: 1 µg peptide, 0.1 µg enzyme, 30 µl, 37°C, 3 hours (legend: 4 h), SDS-PAGE Coomassie; in words
T3 construct: purchased BioCol GmbH (Potsdam, Germany)
T3 sequence (P0C1U8 69-336): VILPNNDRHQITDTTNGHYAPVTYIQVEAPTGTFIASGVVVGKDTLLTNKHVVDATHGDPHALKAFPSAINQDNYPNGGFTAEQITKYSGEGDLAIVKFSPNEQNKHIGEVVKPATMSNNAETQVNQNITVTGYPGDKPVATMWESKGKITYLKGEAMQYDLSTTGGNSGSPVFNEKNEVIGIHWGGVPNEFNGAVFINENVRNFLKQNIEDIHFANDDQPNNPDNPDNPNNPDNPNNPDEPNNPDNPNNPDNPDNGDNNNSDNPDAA
Experimental: as §2

[33] = system: human erythrocytes in 50% citrate blood with S. aureus or P. aeruginosa; settings: peptide 120 µM (highest dose), 1 hour 37°C, in words
Experimental: For analysis of peptide-induced permeabilization of human erythroytes, EDTA-, or citrate-blood was drawn from healthy volunteers, [51], centrifuged at 800 g for 10 min, and plasma and buffy coat were removed. For experiments using EDTA-blood, [51] erythrocytes were washed three times and resuspended to 5% in PBS, pH 7.4. For experiments in 50% blood, citrate-blood was diluted (1∶1) with PBS. The cells were then incubated with end-over-end rotation for 1 h at 37°C in the presence of peptides (60 µM). 2% Triton X-100 (Sigma-Aldrich, St. Louis, USA) served as positive control. The samples were then centrifuged at 800 g for 10 min. The absorbance of hemoglobin release was measured at 540 nm and is expressed as % of TritonX-100 induced hemolysis. In the experiments with blood infected by bacteria, citrate-blood was diluted (1∶1) with PBS. The cells were then incubated with end-over-end rotation for 1 h at 37°C in the presence of peptides (60 and 120 µM) and S. aureus (2×10^8 cfu/ml) or P. aeruginosa (2×10^8 cfu/ml) bacteria. For evaluation of hemolysis, samples were then processed as above. Results given represent mean values from triplicate measurements.

erythrocytes = settings: cited from earlier work
From the text: (§3) Considering the increasing resistance problems against conventional antibiotics, AMPs have recently emerged as potential therapeutic candidates in the above conditions. For example, the indolicidin-derived peptide omiganan is currently being evaluated in Phase III clinical trials for treatment of catheter-related infections. However, the use of AMPs in this context is challenging, as bacteria are able to excrete proteolytic enzymes, [38], and in the case of P. aeruginosa also AMP-scavenging exopolysaccharides, as a defense against AMPs.

P. aeruginosa = settings: in words; cited from earlier work
From the text: as §3

S. aureus = settings: in words; cited from earlier work
From the text: as §3

[34] = target: T4, human neutrophil elastase (Homo sapiens, UniProt P08246); assay: Protease sensitivity assay (SDS-PAGE); format: in vitro ADME; settings: 1 µg peptide, 0.4 µg enzyme, 30 µl, 37°C, 3 hours (legend: 4 h), SDS-PAGE Coomassie; in words
T4 construct: purchased Calbiochem (La Jolla, USA)
T4 sequence (P08246 30-267): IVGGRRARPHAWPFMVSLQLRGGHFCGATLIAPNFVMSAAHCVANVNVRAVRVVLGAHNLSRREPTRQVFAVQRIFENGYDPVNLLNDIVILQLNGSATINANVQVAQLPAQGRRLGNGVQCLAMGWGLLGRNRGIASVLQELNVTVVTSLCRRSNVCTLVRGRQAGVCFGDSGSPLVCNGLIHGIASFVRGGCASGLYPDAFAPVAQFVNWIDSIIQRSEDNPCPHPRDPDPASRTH
Experimental: as §2

T1 sequence (P14756 198-498): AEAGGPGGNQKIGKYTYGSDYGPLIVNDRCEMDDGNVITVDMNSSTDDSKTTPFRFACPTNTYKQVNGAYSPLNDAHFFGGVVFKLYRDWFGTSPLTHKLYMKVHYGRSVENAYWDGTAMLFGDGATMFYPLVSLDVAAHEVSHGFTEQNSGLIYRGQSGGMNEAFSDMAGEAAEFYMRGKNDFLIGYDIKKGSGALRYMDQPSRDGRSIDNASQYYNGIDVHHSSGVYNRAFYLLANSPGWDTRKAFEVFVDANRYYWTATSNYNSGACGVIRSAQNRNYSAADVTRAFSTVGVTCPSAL

With RRPRPRPRPWWWW-NH2 [RRPRPRPRPWWWW-NH2] the “stability against P. aeruginosa elastase” value (P. aeruginosa elastase) was “largely unaffected”, the “stability against P. aeruginosa elastase, extended digestion” value (P. aeruginosa elastase) was “maintained stability” and the MIC [1] was 8 mg/L. The MIC [2] was 16 mg/L, the MIC [3] was 32 mg/L and the MIC [4] was 32 mg/L. For the same compound, the MIC [5] was 128 mg/L, the MIC [6] was 16 mg/L and the MIC [7] was 32 mg/L. The MIC [8] was 32 mg/L, the MIC [9] was 8 mg/L and the MIC [10] was 16 mg/L. It also gave an MIC [11] of 32 mg/L, an MIC [12] of 16 mg/L and an MIC [13] of 16 mg/L. For the same compound, the MIC [14] was 16 mg/L, the MIC [15] was 32 mg/L and the MIC [16] was 8 mg/L. It also gave an MIC [17] of 16 mg/L, an MIC [18] of 8 mg/L and an MIC [19] of 64 mg/L. It also gave an MIC [20] of 16 mg/L, an MIC [21] of 32 mg/L and an MIC [22] of 32 mg/L. For the same compound, the MIC [23] was 32 mg/L, the MIC [24] was 64 mg/L and the MIC [25] was 16 mg/L. For the same compound, the MIC [26] was 16 mg/L, the MIC [27] was 16 mg/L and the MIC [28] was 32 mg/L. The MIC [29] was 16 mg/L, the MIC [30] was 16 mg/L and the MIC [31] was 128 mg/L. For the same compound, the MIC [32] was 8 mg/L, the “stability against S. aureus aureolysin” value (S. aureus aureolysin) was “largely unaffected” and the “stability against S. aureus V8 proteinase” value (S. aureus V8 proteinase) was “largely unaffected”. For the same compound, the “hemolysis in human blood infected by bacteria” value [33] was “no accompanying hemolysis”.
For “QPTRRPRPGTGPGRRPRPRPRP [QPT22, PRELP-derived peptide of earlier work]”, the hemolytic activity (erythrocytes) is given as “no hemolytic activity”, the antimicrobial effects (P. aeruginosa) is given as “exert antimicrobial effects” and the antimicrobial effects (S. aureus) is given as “exert antimicrobial effects”.
In the case of GRRPRPRPRPWWWW-NH2 [GRRPRPRPRPWWWW-NH2], the “stability against P. aeruginosa elastase” value (P. aeruginosa elastase) is reported as “largely unaffected”, the “stability against S. aureus aureolysin” value (S. aureus aureolysin) is reported as “largely unaffected” and the “stability against S. aureus V8 proteinase” value (S. aureus V8 proteinase) is reported as “largely unaffected”.
With `CC[C@H](C)[C@H](NC(=O)[C@H](CCCCN)NC(=O)[C@H](CCC(=O)O)NC(=O)[C@H](CCCCN)NC(=O)[C@H](CO)NC(=O)[C@H](CCCCN)NC(=O)[C@H](CCCNC(=N)N)NC(=O)[C@H](Cc1ccccc1)NC(=O)[C@H](Cc1ccccc1)NC(=O)[C@H](CC(=O)O)NC(=O)CNC(=O)[C@H](CC(C)C)NC(=O)[C@@H](N)CC(C)C)C(=O)NCC(=O)N[C@@H](CCCCN)C(=O)N[C@@H](CCC(=O)O)C(=O)N[C@@H](Cc1ccccc1)C(=O)N[C@@H](CCCCN)C(=O)N[C@@H](CCCNC(=N)N)C(=O)N[C@H](C(=O)N[C@H](C(=O)N[C@@H](CCC(N)=O)C(=O)N[C@@H](CCCNC(=N)N)C(=O)N[C@H](C(=O)N[C@@H](CCCCN)C(=O)N[C@@H](CC(=O)O)C(=O)N[C@@H](Cc1ccccc1)C(=O)N[C@@H](CC(C)C)C(=O)N[C@@H](CCCNC(=N)N)C(=O)N[C@@H](CC(N)=O)C(=O)N[C@@H](CC(C)C)C(=O)N[C@H](C(=O)N1CCC[C@H]1C(=O)N[C@@H](CCCNC(=N)N)C(=O)N[C@H](C(=O)N[C@@H](CCC(=O)O)C(=O)N[C@@H](CO)C(=O)O)[C@@H](C)O)C(C)C)[C@@H](C)CC)C(C)C)[C@@H](C)CC` [reference compound] the “stability against P. aeruginosa elastase” value (P. aeruginosa elastase) was “extensively degraded”, the “stability against human neutrophil elastase” value [34] was “extensively degraded” and the “stability against S. aureus aureolysin” value (S. aureus aureolysin) was “extensively degraded”. For the same compound, the “stability against S. aureus V8 proteinase” value (S. aureus V8 proteinase) was “extensively degraded” and the “hemolysis in human blood infected by bacteria” value [33] was “significant concomitant hemolysis”.
With “ILRWPWWPWRRK-NH2 [ILRWPWWPWRRK-NH2, reference compound]” the “stability against P. aeruginosa elastase, extended digestion” value (P. aeruginosa elastase) was “degraded during extended digestion”.
